The structures appear in SMILES notation.

Experimental findings from ChEMBL document CHEMBL1147236, “Semiplenamides A-G, fatty acid amides from a Papua New Guinea collection of the marine cyanobacterium Lyngbya semiplena” (J Nat Prod, 2003) are described below.

The nature of data set [1]: Inhibition of AMT in rat RBL-2H3 cells assessed as [14C]anandamide uptake. Format: cell-based.
Data set [2] is described as follows: Toxicity in Artemia salina after 24 hrs. Format: organism-based. The following applies: in vivo, read-out: LD50.
Another data set deals with Cannabinoid receptor 1 (Rattus norvegicus, UniProt P20272). Description: Displacement of [3H]SR141716A from CB1 receptor in CD rat brain membranes. Format: cell membranes, Membrane. Background: Loss of bound radioactivity is the signal in a displacement assay; it reports binding, not function.
Chain of Cannabinoid receptor 1 (P20272 whole entry): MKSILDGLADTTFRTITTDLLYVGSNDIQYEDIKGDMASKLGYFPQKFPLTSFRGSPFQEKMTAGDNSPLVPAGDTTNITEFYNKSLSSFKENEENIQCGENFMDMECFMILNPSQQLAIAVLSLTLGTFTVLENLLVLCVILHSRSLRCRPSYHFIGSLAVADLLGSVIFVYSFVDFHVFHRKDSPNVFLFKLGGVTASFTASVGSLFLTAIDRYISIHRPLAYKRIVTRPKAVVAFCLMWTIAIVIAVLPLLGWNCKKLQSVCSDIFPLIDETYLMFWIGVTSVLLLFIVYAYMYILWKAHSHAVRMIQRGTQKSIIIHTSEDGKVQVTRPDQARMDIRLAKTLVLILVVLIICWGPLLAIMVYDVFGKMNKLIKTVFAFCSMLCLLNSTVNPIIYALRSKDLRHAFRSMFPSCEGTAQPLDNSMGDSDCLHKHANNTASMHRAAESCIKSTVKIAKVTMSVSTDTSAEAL

On to `CCCCCCCCCCCCC/C=C/CC/C=C(\C)C(=O)NCCO` [SEMIPLENAMIDE A], for which the half-maximal inhibitory concentration (IC50) – broadly, the concentration at which inhibition is half-maximal – in data set [1] amounted to 18.1 µM. Further, the LC50 at 24 h in data set [2] was 1.4 µM. Further, the inhibition constant (Ki) (commonly a measure of affinity in units of concentration, obtained from inhibition or displacement) on Cannabinoid receptor 1 was 19.5 µM.

On to `CCCCCCCCCCCCC/C=C/CC/C=C(\C)C(=O)NCCOC(C)=O` [SEMIPLENAMIDE B], for which the LC50 at 24 h in data set [2] was 2.5 µM. The compound also gave a Ki at Cannabinoid receptor 1 of 18.7 µM.

With `CCCCCCCCCCCCC/C=C(\C)C(=O)N[C@@H](C)CO` [SEMIPLENAMIDE C], the LC50 at 24 h in data set [2] worked out at 1.5 µM.

On to `CCCCCCCCCCCCCCCCC/C=C(\C)C(=O)N[C@@H](C)COC(C)=O` [SEMIPLENAMIDE D], for which, in data set [2], the LC50 at 24 h is 18 µM.

Take `CCCCCCCCCCCCCCC/C=C(\C)C(=O)N[C@@H](C)COC(C)=O` [SEMIPLENAMIDE E]: in data set [2], the LC50 at 24 h was 19 µM.

As for `CCCCCCCCCCCCCCC[C@H]1O[C@]1(C)C(=O)NC(C)CO` (stereo partly specified) [SEMIPLENAMIDE F], in data set [2], the LC50 at 24 h came to 1.4 µM.

On to `CCCCCCCCCCCCCCC[C@H]1O[C@]1(C)C(=O)NC(C)COC(C)=O` (stereo partly specified) [SEMIPLENAMIDE G], for which the LC50 at 24 h in data set [2] turned out to be 2.4 µM. The same compound had a Ki at Cannabinoid receptor 1 of 17.9 µM.
